According to patent publication US12371691B2, “Nano complex for targeted repairing of neurovascular lesion, and preparation and use thereof” (SHANGHAI JIAOTONG UNIVERSITY SCHOOL OF MEDICINE, priority 2019, dated 2025):
“Also recorded” adds a separate entry of the source. No end group written: not given here.

Legend:
[1] = test system: Mouse-derived cerebrovascular endothelial cells bEnd3 cells; assay: High-content quantitative analysis of cellular uptake of red fluorescence-labeled nano complexes; assay type: cell-based; details: DiI-labeled nano complexes modified with the targeted peptide, 5 μg/mL by lipid mass, 6 h; FIG. 3
Protocol: High-content quantitative analysis was performed to determine cellular uptake of each of the above-mentioned nano complexes. Mouse-derived cerebrovascular endothelial cells bEnd3 cells were seeded in a 96-well plate at a density of 5000/well and cultured for 24 h. The original culture solution was aspirated and discarded, and 100 μL of the above-mentioned 8 red fluorescence-labeled nanostructure solutions (5 μg/mL, calculated by lipid mass) were added, respectively; the mixture was incubated in a cell incubator for 6 h, then fixed with 3.7% formaldehyde at 37° C. for 10 min, nuclear stained with Hoechest for 10 min, washed three times with PBS, and then photographed and subjected to quantitative analysis with a high-content Target Activation procedure. […]
Moreover, a red fluorescence-labeled targeted nano complex was prepared as described in the method of Example 2. Cellular uptake of a targeted peptide-modified nano complex was subjected to high-content quantitative analysis. The cerebrovascular endothelial cells were treated with targeted peptide-modified nano complexes containing targeted peptides of different ratios (1500:1, 1000:1, 500:1, 250:1, 100:1, 30:1, 10:1, and 5:1, the molar ratio of the lipid to the targeted peptide); the mixture was incubated in a cell incubator for 6 h, then fixed, nuclear stained, and subjected to high-content quantitative analysis.

[2] = test system: cerebral vessels of AD model mice; assay: Comparison of vascular binding capacity, two-photon imaging of brain after tail vein administration; assay type: in vivo, mouse; details: DiI-labeled nano complexes modified with the targeted peptide, 3 hours, FIG. 4
Protocol: The AD model animal mice were administered via tail veins with the above-mentioned red fluorescence-labeled nano complexes modified with targeted peptides (containing 8 bridge structure peptides), and were sacrificed 3 hours later. The mice were perfused with normal saline until the blood was not red, and the brain thereof was taken and photographed by a two-photon microscope. The nano complexes bound on cerebral vessels were imaged, and Image J image analysis software was used to analyze the fluorescence intensity of the red fluorescence-labeled nano complexes bound on the cerebral vessels.

Substance | uptake of nano complex by cerebrovascular endothelial cells (bridge structure peptide screen) [1] | fluorescence intensity of nano complexes bound on cerebral vessels (bridge structure peptide screen) [2]
AC-Phe-Ala-Glu-Lys-Phe-Lys-Glu-Ala-Val-Lys-Asp-Tyr-Phe-Ala-Lys-Phe-Trp-Asp-Ile-Gly-Glu-Leu-Lys-Val-Leu-Met-Glu-Lys-Glu-Leu (Ac-FAEKFKEAVKDYFAKFWDIGELKVLMEKEL) [R3, targeted peptide with bridge Ile-Gly; tested as modifier of DiI-labeled nano complex] | good effect on uptake | 
AC-Phe-Ala-Glu-Lys-Phe-Lys-Glu-Ala-Val-Lys-Asp-Tyr-Phe-Ala-Lys-Phe-Trp-Asp-Gly-Gly-Ser-Gly-Gly-Glu-Leu-Lys-Val-Leu-Met-Glu-Lys-Glu-Leu (Ac-FAEKFKEAVKDYFAKFWDGGSGGELKVLMEKEL) [R7, targeted peptide with bridge Gly-Gly-Ser-Gly-Gly; tested as modifier of DiI-labeled nano complex] | good effect on uptake | 
AC-Phe-Ala-Glu-Lys-Phe-Lys-Glu-Ala-Val-Lys-Asp-Tyr-Phe-Ala-Lys-Phe-Trp-Asp-Gly-Ala-Gly-Ala-Glu-Leu-Lys-Val-Leu-Met-Glu-Lys-Glu-Leu (Ac-FAEKFKEAVKDYFAKFWDGAGAELKVLMEKEL) [R6, targeted peptide with bridge Gly-Ala-Gly-Ala; tested as modifier of DiI-labeled nano complex] | good effect on uptake; also recorded: better uptake | dominant targeted peptides
AC-Phe-Ala-Glu-Lys-Phe-Lys-Glu-Ala-Val-Lys-Asp-Tyr-Phe-Ala-Lys-Phe-Trp-Asp-Gly-Gly-Glu-Leu-Lys-Val-Leu-Met-Glu-Lys-Glu-Leu (Ac-FAEKFKEAVKDYFAKFWDGGELKVLMEKEL) [R1, targeted peptide with bridge Gly-Gly; tested as modifier of DiI-labeled nano complex] | good effect on uptake; also recorded: better uptake | dominant targeted peptides
AC-Phe-Ala-Glu-Lys-Phe-Lys-Glu-Ala-Val-Lys-Asp-Tyr-Phe-Ala-Lys-Phe-Trp-Asp-Ile-Ala-Glu-Leu-Lys-Val-Leu-Met-Glu-Lys-Glu-Leu (Ac-FAEKFKEAVKDYFAKFWDIAELKVLMEKEL) [R2, targeted peptide with bridge Ile-Ala; tested as modifier of DiI-labeled nano complex] | good effect on uptake | 
AC-Phe-Ala-Glu-Lys-Phe-Lys-Glu-Ala-Val-Lys-Asp-Tyr-Phe-Ala-Lys-Phe-Trp-Asp-Ile-Ala-Ile-Glu-Leu-Lys-Val-Leu-Met-Glu-Lys-Glu-Leu (Ac-FAEKFKEAVKDYFAKFWDIAIELKVLMEKEL) [R5, targeted peptide with bridge Ile-Ala-Ile; tested as modifier of DiI-labeled nano complex] | good effect on uptake; also recorded: better uptake | dominant targeted peptides
AC-Phe-Ala-Glu-Lys-Phe-Lys-Glu-Ala-Val-Lys-Asp-Tyr-Phe-Ala-Lys-Phe-Trp-Asp-Gly-Ser-Gly-Glu-Leu-Lys-Val-Leu-Met-Glu-Lys-Glu-Leu (Ac-FAEKFKEAVKDYFAKFWDGSGELKVLMEKEL) [R4, targeted peptide with bridge Gly-Ser-Gly; tested as modifier of DiI-labeled nano complex] | good effect on uptake; also recorded: better uptake; also recorded: best uptake | dominant targeted peptides; also recorded: optimal targeted peptide
AC-Phe-Ala-Glu-Lys-Phe-Lys-Glu-Ala-Val-Lys-Asp-Tyr-Phe-Ala-Lys-Phe-Trp-Asp-Gly-Ser-Ser-Ser-Gly-Gly-Glu-Leu-Lys-Val-Leu-Met-Glu-Lys-Glu-Leu (Ac-FAEKFKEAVKDYFAKFWDGSSSGGELKVLMEKEL) [R8, targeted peptide with bridge Gly-Ser-Ser-Ser-Gly-Gly; tested as modifier of DiI-labeled nano complex] | good effect on uptake | 
